Results on one compound are retold here after patent publication US20220401385A1, “Combination Therapy Based on PD-1 Signaling Inhibitors” (Kyoto University, priority 2019, published 2022).

“Also recorded” adds a separate entry of the source.

One test concerns MC38 cells. The test is described as follows: MC38 mouse therapy model, tumor growth and survival. The test is classed as in vivo, C57BL/6 mice. The method, then: FIG. 1-1 a) CD8^+ T cells or CD3^+ T cells were isolated from mice, and 2×10^5 cells were stimulated with CD3/CD28 beads in 96-well U plates. After 24 hours and 48 hours, cells and culture supernatant were collected, followed by measurement of spermidine (SPD) concentration by mass spectrometry. […] Ten days after inoculation, PD-L1 antibody (2 mg/kg), PD-L1 antibody+SPD (2 mg/kg), or SPD alone was administered. Subsequently, PD-L1 antibody was administered 4 times at a regular interval of 5 days, and SPD was administered 8 times at a regular interval of 3 days. Tumor growth curve and survival curve are shown. c) Draining lymph nodes (DLNs) of mice were isolated 13 days after tumor inoculation, and stained with antibodies to CD8, CD44 and CD62L. The number of cells in draining lymph node (cells/DLN) in each treatment group is shown at the left side. After being gated, CD8^+ T cells were fractionated with CD44 and CD62L into P1 to P4 cell populations. Percentages and cell numbers of P1 to P4 in each treatment group are shown. d) Tumor was isolated 13 days after tumor inoculation and treated with collagenase. Percentages and numbers per mg tumor of tumor-infiltrating CD8^+ CD45.2^+ cells are shown. For statistical analysis, ANOVA was used. * p<0.05, ** p<0.01, *** p<0.001, **** p<0.0001.
FIG. 8 MC38 cells (5×10^5) were intradermally inoculated into C57BL/6 mice. Ten days after inoculation, PD-L1 antibody (2 mg/kg), PD-L1 antibody+SPD (2 mg/kg) or PD-L1 antibody+SPM (6 mg/kg) was administered. Subsequently, […] was administered 4 times at a regular interval of 5 days, whereas SPD and SPM were administered 8 times at a regular interval of 3 days. Tumor growth curve is shown.
MC38 cells (5×10^5) were intradermally injected on the right flank. Ten days after inoculation, PD-L1 antibody (1-111A; prepared by and stored at the Department of Immunology and Genomic Medicine, Graduate School of Medicine, Kyoto University) (Immunology Letters 84 (2002) 57-62) (2 mg/kg), PD-L1 antibody+SPD (2 mg/kg) or SPD alone was administered to mice. Subsequently, PD-L1 antibody was administered 4 times at a regular interval of 5 days, and SPD was administered 8 times at a regular interval of 3 days. Tumors were measured on every alternate day, and tumor volumes were calculated using the formula for typical ellipsoid, π×(length×breadth×height/6).

In test [1] the test system is draining lymph node CD8+ T cells. Nature of the test: Seahorse OCR/ECAR of draining lymph node CD8+ T cells of treated mice. The test is classed as in vivo, C57BL/6 mice. To be noted: combined therapy compared to PD-1 inhibition alone. On the procedure: FIG. 2-1 a) Treated mice were analyzed for draining lymph nodes and the inside of tumor. Briefly, draining lymph nodes of mice were isolated 13 days after tumor inoculation, and stained with antibodies to CD8 and Sca-1. FACS diagram and percentages of Sca-1^+ cells in CD8^+ T cells are shown. b) CD8^+ T cells in isolated draining lymph nodes were stimulated with CD3/CD28 antibody beads. After 24 hours, cell proliferation was examined by means of ^3H uptake. At the same time, IFN-γ concentration in culture supernatant was measured. c) Tumor from the same mice as described above was treated with collagenase. Then, expression rates of PD-1 and Tim3 in tumor-infiltrating CD8^+ T cells were analyzed. d) Oxygen consumption rate (OCR) and extracellular acidification rate (ECAR) of draining lymph node CD8^+ T cells were measured with a Seahorse analyzer (N=3 wells). For statistical analysis, ANOVA was used. * p<0.05, ** p<0.01, *** p<0.001, **** p<0.0001.
Oxygen consumption rates were measured using an XF96 Extracellular Flux Analyzer (Seahorse Bioscience). CD8^+ T cells (4×10^5) per well were seeded in a determined XF96 plate. The four chemical modulators of mitochondrial oxidative phosphorylation, which came with an XF Cell Mito Stress Test Kit (Seahorse Bioscience), were added to the module sequentially. In brief, basal OCR measurement was performed […] sequential addition of oligomycin, FCCP, and rotenone/antimycin A. SRC and ATP production rates were calculated by the following formulas:
SRC (pmo; 02/min)=OCRmaximal−OCRbasal
mitoATP (pmol ATP/min)=(OCRbasal−OCRoligo)×5.5.

In the next test the test system is AMPK and mTOR signaling. The test is described as follows: Western blotting of AMPK and mTOR signaling, CD44 high cells. Format: cell-based, mice. To be noted: SPD 0.2 μM, 1 hour and 2 hours. On the procedure:
FIG. 5 CD8^+ T cells were isolated from the spleen of mice without tumor inoculation, and further isolated into CD44^+ (CD44 high) and CD44^− (CD44 low) cell populations. a) CD44 low cells were simulated with CD3/CD28 antibody beads and SPD (0.2 μM). […] Protein expression levels after 1 hour and 2 hours were confirmed by western blotting with the respective indicated antibodies. As regards statistical analysis, t-test was used for comparison of two groups. * p<0.05, ** p<0.01, *** p<0.001, **** p<0.0001.
CD8^+ T cells were isolated using mouse CD8 Microbeads (Miltenyi Biotec or Mojo). After washing with PBS twice, 2×10^6 cells were solubilized in a lysis buffer containing 30 mM Tris-HCl (pH. 7.4), 150 mM NaCl, 10% glycerol, 0.1% SDS, 1% Triton-X-100, 0.05% Na-Doc, 5 mM EDTA (pH. 8.0), protease inhibitor mixture (Roche Molecular Biochemicals) and phosphatase inhibitors (Nacalai Tesque). After measurement of protein concentrations by DC protein assay (Bio-Rad), 4 μg of proteins was mounted on 4 to 20% gradient Mini-PROTEAN TGX Gels (Bio-Rad) and electroblotted onto nitrocellulose membranes, which were then incubated in a blocking buffer of TBS containing 1% BSA. Primary antibody incubations were carried out overnight at 4° C. in blocking buffer. After washing, secondary antibody incubations were carried out at room temperature for 40 min in blocking buffer. […]
For orientation: In western blotting, separated proteins are transferred to a membrane and probed.

Take `NCCCCNCCCN` [SPD, spermidine]: in the test on MC38 cells (SPD (2 mg/kg) in combination with PD-L1 antibody (2 mg/kg), MC38 in C57BL/6 mice), the “antitumor effect of the PD-1 inhibitory antibody” value is reported as “synergistically improved; also recorded: greatly enhanced”. In addition, the antitumor effect entry in the test with MC38 cells (spermidine alone, in living bodies) was “no antitumor effect”. For the same compound, in test [1], the “glycolysis (ECAR) of CD8+ T cells” value is given as “increased”, the “oxygen consumption (OCR) of CD8+ T cells” value is “increased” and the “spare respiratory capacity (SRC) of CD8+ T cells” value is listed as “increased”. In the test with AMPK and mTOR signaling, the “expression levels of pAMPK and its downstream molecules (pACC, pPKCa)” value is “markedly high”.
